The record followed here is US8664271B2, “Stabilized leukotriene B4 (LTB4) agent pharmaceutical formulation” (LTB4 Sweden AB, priority 2004, dated 2014).

Holding throughout (format): physicochemical
Data set [1] can be described thus: Stability of aqueous LTB4 Na salt solution at pH 7.4 with or without EDTA (HPLC impurities). As to conditions: aqueous solution 5 mg/ml. As to the method: LTB4 (acid form) was obtained from Cascade Biochem (U.K.) in solution in ethanol/water, 95/5. The purity level of this starting material was about 98.5% (+0.3%) as assessed by reverse phase HPLC. The ethanolic LTB4 solution was neutralized with an equivalent of sodium hydroxide to obtain LTB4 sodium (Na) salt. The ethanolic solution of LTB4 Na salt was evaporated to dryness under reduced pressure using a rotoevaporator and a water bath (30° C.), until an oily residue is obtained. The residue was redisolved in Dulbeccos' phosphate buffered saline (DPBS) at pH 7.4 containing or not, 0.01% ethylenediaminetetraacetic acid (EDTA) to obtain a final concentration of 5 mg LTB4/ml. Solutions were dispensed in 2 ml type I borosilicate glass vials which were then sealed under argon using Teflon-lined rubber stoppers and aluminium caps. The samples were stored in the dark at 25±5° C. until analysis at the indicated time points. Analysis of LTB4 solutions was carried out by reverse phase HPLC using a C18, 5μ particle, 4.7X250 mm column (Nucleosil) and methanol/acetronitrile gradient elution; detection of LTB4 and impurities was performed on line using an HPLC UV spectrophotometer at 270 nm.

Data set [2] is described as follows: Effect of pH (phosphate buffer) on stability of aqueous LTB4 Na salt solution at 17.5 μg/ml. As for the experimental part: Aqueous isotonic LTB4 Na salt solutions at the concentration of 17.5 μg/ml were obtained by dilution in phosphate buffered saline (3 mM sodium phosphate buffer, pH 7.5, 8.5, 9.5 and 10.5) containing 0.01% EDTA of an LTB4 Na salt solution at 25 mg/ml (Example 2). Solutions of LTB4 Na salt at 17.5 μg/ml of the 4 different pH were dispensed in 2 ml vials for storage under air, in the dark at 4±4° C. or 20±5° C. for 15 months prior to reverse phase HPLC analysis of LTB4 and impurities, as described in Example 1.

A short description of data set [3]: Stability of freeze-dried LTB4 Na salt solutions (mannitol, with or without HSA). As to conditions: for level of impurities: freeze-dried solution 35 μg/ml, pH 7.5, 4% mannitol. As to the method: Aqueous isotonic LTB4 Na salt solutions at the concentration of 35 μg/ml in phosphate buffered saline (3 mM sodium phosphate buffer, pH 7.5 or 9.5) containing 0.01% EDTA were obtained as described in Example 5. Mannitol was added to all solutions to the final concentration of 4% in order to generate a solid residue (mannitol bread) containing LTB4 Na salt and all components of the excipient upon freeze-drying. Fatty acid free (delipidated) human serum albumine (HSA, Sigma Chemicals, St-Louis, Mo.) was added to some of the solutions to the final concentration of 1 mg/ml prior to final pH adjustment (to 7.5 or 9.5). Solutions were dispensed in 2 ml vials, frozen at −20° C. and freeze-dried. The vials containing the freeze-dried solutions (mannitol breads) were then sealed as described in Example 1 (but under air instead of argon), and stored in the dark at 40±5° C. After 1.5 or 4.5 months, vials were opened and the mannitol breads (containing LTB4) were dissolved using 1 ml of water to regenerate the original LTB4 Na salt solutions at 35 μg/ml. LTB4 and impurities were then analyzed by reverse phase HPLC as described in Example 1.

Data set [4] in a line: Effect of glycine buffer strength and pH on stability of aqueous LTB4 Na salt solutions. As to conditions: 5 months at 40° C.; for level of impurities: 35 μg/ml. As to the method: Aqueous isotonic LTB4 Na salt solutions at the concentration of 35 and 350 μg/ml in phosphate buffered saline ([…]) containing 0.01% EDTA and various concentrations of glycine (from 0.01 mM to 10 mM) were obtained by dilution of a 25 mg/ml solution of LTB4 Na salt (Example 2). Solutions of LTB4 Na salt at 35 and 350 μg/ml at the 4 different glycine concentrations were dispensed in 2 ml vials for storage under air in the dark at 40±5° C. for 5 months prior to reverse phase HPLC analysis of LTB4 and impurities as described in Example 1.

A short description of data set [5]: Forced degradation of ethanolic solutions of LTB4 (acid form and Na salt). As for the experimental part:
The ethanolic solution of LTB4 (acid form) (EtOH/water, 95/5) obtained from the manufacturer (Cascade Biochem, UK) was diluted with EtOH/water, 95/5 to generate ethanolic solutions of LTB4 (acid form) at 9 and 0.9 mg/ml. Ethanolic solutions of the sodium salt of LTB4 at 9 and 0.9 mg/ml were obtained by adding 1.05 equivalent of sodium hydroxide. Solutions of the sodium salt of LTB4 at the concentration of 9 and 0.9 mg/ml in 75/25 EtOH/10 mM glycine in water at pH 10.5 (sodium hydroxide), were obtained by mixing 3 volumes of solutions of the sodium salt of LTB4 at 12 and 1.2 mg/ml in EtOH/water, 95/5 with 1 volume of 40 mM glycine buffer at pH 10.5. Solutions were dispensed in 2 ml vials for storage under air in the dark at −80° C. and 40±5° C. for 17 months prior to reverse phase HPLC analysis of LTB4 and impurities as described in Example 1.

Data set [6] in a line: Effect of pH (phosphate/glycine buffer) on stability of aqueous LTB4 Na salt solution at 1.75 mg/ml. As to the method:
Aqueous isotonic LTB4 Na salt solutions at the concentration of 1.75 mg/ml in phosphate/glycine buffered saline (3 mM sodium phosphate and 10 mM glycine buffer, pH 7.5, 8.5, 9.5 and 10.5) containing 0.01% EDTA were obtained by dilution of a 25 mg/ml solution of LTB4 Na salt (see Example 2) with the appropriate phosphate/glycine buffered saline containing 0.01% EDTA. Solutions were dispensed in 2 ml vials for storage under air, in the dark at 4±4° C. and 20±5° C. for 9 months prior to reverse phase HPLC analysis of LTB4 and impurities as described in Example 1.

`CCCCC/C=C\C[C@@H](O)/C=C/C=C/C=C\[C@@H](O)CCCC(=O)[O-].[Na+]` [LTB4 Na salt]: the impurity level in data set [1] (DPBS pH 7.4, 0.01% EDTA, 60 days of storage at 25° C.) is given as 2.9%; in data set [1] (DPBS pH 7.4, 0.01% EDTA, 90 days of storage at 25° C.), 8.6%; in data set [1] (DPBS pH 7.4, no EDTA, 14 days of storage at 25° C.), 23.3 % of LTB4 peak area; in data set [5] (0.9 mg/ml in 75/25 EtOH/10 mM glycine pH 10.5, 17 months at 40° C.), 4.3 % of AUC; in data set [5] (0.9 mg/ml in 95/5 EtOH/water, 17 months at 40° C.) it was 4.9 % of AUC; in data set [5] (9 mg/ml in 75/25 EtOH/10 mM glycine pH 10.5, 17 months at 40° C.), 3.8%. Besides, in data set [1] (DPBS pH 7.4, 0.01% EDTA, up to 14 days of storage at 25° C.), the “degradation” value is recorded as “no increase of degradation”. In addition, the “level of impurities” value was “increased level of impurities” in data set [1] (DPBS pH 7.4, no EDTA, 7 days of storage at 25° C.); 22.7% in data set [3] (1.5 months at 40° C.); 51.3% in data set [3] (4.5 months at 40° C.); 2.9% in data set [3] (redissolved immediately (time 0)); 20% in data set [4] (pH 7.5, 10 mM glycine, data not shown); 6.5% in data set [4] (pH 9.5, 10 mM glycine). For the same molecule, the level of impurities in data set [5] (9.0 mg/ml in EtOH/water 95/5, 17 months at 40° C., AUC at 270 nm) is 5.4 % of AUC. Moreover, in data set [2] (pH 7.5 to 10.5, 15 months of storage at 4° C.), the “degradation of LTB4” value is “very little degradation”. Moreover, the “effect of increasing pH on stability” value in data set [2] (phosphate buffered saline pH 7.5 to 10.5, 0.01% EDTA, 15 months, more evident at 20° C.) is listed as “strikingly increases the stability”; in data set [6] (1.75 mg/ml, phosphate/glycine buffered saline pH 7.5 to 10.5, 0.01% EDTA, 9 months at 4° C. and 20° C.), “strikingly increases the stability”. The “effect of elevation of pH from 7.5 to 9.5 prior to freeze-drying” value in data set [3] (freeze-dried, 1.5 months (with HSA) or 4.5 months at 40° C.) is on record as “striking decrease in the level of impurities”. Also, the “decrease in the level of impurities by addition of HSA” value in data set [3] (freeze-dried, pH 7.5, HSA 1 mg/ml, 1.5 months of storage at 40° C.) is given as roughly 50%. In addition, the “impact of glycine buffer concentration on stability” value in data set [4] (glycine 0.01 mM to 10 mM, pH 9.5, 35 μg/ml) is reported as “little impact”. Further, the “effect of increasing pH on solution stability” value in data set [6] (forced degradation, storage at 40° C., data not shown) is listed as “dramatic improvement”.
